# Laboratory results: patent US5494932A, “Sulfonic stilbene derivatives in the treatment of viral disease” (Merrell Dow Pharmaceuticals Inc., priority 1991, dated 1996)
# Like-named read-outs stand apart in the source and are kept apart here.
# Assays:
# [1] = tested on: HIV-1 strain GB8 in JM cells; test: Acute HIV-1 (GB8) infection of JM cells: syncytial counts and p24 antigen; assay type: cell-based, HIV-1 (human T cell line JM); conditions: for Mean Syncytial Counts: at day 4 p.i.
# Excerpt: (§1) When evaluated in the human T cell line JM acutely infected with the GB8 virus, DIDS, H2 DIDS and SITS (Table I) suppressed virus-induced multinucleated giant cell formation (syncytia). […] We also examined the antiviral properties of these compounds in a second host-cell/virus system, i.e., the highly CD4+ C8166 cells infected with the Haitian strain of HIV-1, RF.
# (§2) The cell lines used were the semi-mature human lymphoblastoid leukemia T cell line JM, the human T-lymphoblastoid C8166 cell line, the human cutaneous T cell lymphoma line H9 and, the human T cell transformed line MT-4. Stocks of HIV-1 strains RF and GB8 (kindly provided by Dr. Graham Farrar, Center for Applied Microbiological Research, Porton Dawn, England) were prepared from chronically infected H9 cells and acutely infected JM cells, respectively. Virus stocks consisted of cell-free growth medium (RPMI 1640 plus 10% fetal calf serum) containing freshly shed virus. Virus titres were determined by a standard plaque reduction assay.
# (§3) Virus stocks (strains RF or GB8) were diluted into growth medium containing various concentrations of DIDS, H2 DIDS or SITS. The required number of cells were then immediately added and the virus allowed to absorb for 2 hours at 37° C. to give a multiplicity of infection (MOI) of 0.001 infectious units/cell. The virus-infected cells were pelleted, washed three times in phosphate buffered saline (PBS), and resuspended in fresh growth medium containing the appropriate concentrations of stilbene disulfonic acids. Cells were then distributed into 24-well culture plates (Falcon) and assayed as described below for virus infection. Alternatively, cells were first infected with HIV-1 (strains RF or GB8) for 2 hours at 37° C. at the above MOI. After extensive washing, cells were replated into fresh growth medium containing various concentrations of stilbene disulfonic acids. In the above experiments, syncytia were scored between 2 and 4 days postinfection (p.i.) in triplicate using an Olympus CK2 inverted microscope. The culture fluids were recovered between 3 and 5 days p.i., clarified by low speed centrifugation (2,000 rpm) for 5 minutes and the level of HIV-1 p24 core antigen in the supernatants was determined by p24 antigen ELISA (Coulter). The concentrations of stilbene disulfonic acids giving 50% inhibition of HIV-1 growth (IC50) were determined from the dose-response curves by linear regression analysis.
# Protocol: JM cells were infected with HIV-1 to give a multiplicity of infection of 0.001. Virus adsorption was for 2 hours at room temperature. The cells were washed and distributed into wells containing different concentrations of test compounds and incubated. After 2 days the cells were observed and syncytia were counted. The cell-free supernatant fluids were harvested at 4 and 6 days post infection and assayed for levels of p24 viral core antigen and after 6 days the supernatants were also titrated to determine levels of infectivity.
# [2] = tested on: HIV-1 strain GB8 in JM cells; test: Established HIV-1 (GB8) infection of JM cells, post-infection addition: syncytia and p24 antigen; assay type: cell-based, HIV-1 (human T cell line JM); conditions: 100 μg/ml
# HSV 2 = test: Plaque reduction assay, HSV 2; assay type: cell-based
# Method: Protocol: Plaque reduction assay. Treatment after adsorption during incubation.
# [3] = tested on: HIV-1 strain RF in C8166 cells; test: Acute HIV-1 (RF) infection of C8166 cells: syncytial and p24 antigen assays; assay type: cell-based, HIV-1 (human C8166 cells); conditions: Human immunodeficiency virus 1, RF strain in C8166 cells, read-out: P24 Antigen % Virus Control (values in parenthesis)
# Excerpt: as §1, §2, §3
compound,measurement,setting,value
"O=S(=O)(O)c1cc(N=C=S)ccc1CCc1ccc(N=C=S)cc1S(=O)(=O)O [H2 DIDS, 4,4'-diisothiocyanatodihydrostilbene-2,2'-disulfonic acid]",Mean Syncytial Counts 2 Days p.i.,[1]; 3 μg/ml,107
same,Mean Syncytial Counts,[1]; 6 μM,107
same,Mean Syncytial Counts 2 Days p.i.,[1]; 6 μg/ml,97
same,Mean Syncytial Counts,[1]; 12 μM,97
same,Mean Syncytial Counts 2 Days p.i.,[1]; 12.5 μg/ml,71
same,p24 4 days p.i.,[1]; 12.5 μg/ml,94000 pg/mL
same,p24 6 days p.i.,[1]; 12.5 μg/ml,8.51 × 10^6 pg/m.
same,Mean Syncytial Counts,[1]; 25 μM,71
same,Mean Syncytial Counts 2 Days p.i.,[1]; 25 μg/ml,7
same,p24 4 days p.i.,[1]; 25 μg/ml,32000 pg/mL
same,p24 6 days p.i.,[1]; 25 μg/ml,2.66 × 10^6 pg/m.
same,Mean Syncytial Counts,[1]; 50 μM,7
same,Mean Syncytial Counts 2 Days p.i.,[1]; 50 μg/ml,0
same,p24 4 days p.i.,[1]; 50 μg/ml,70 pg/mL
same,p24 6 days p.i.,[1]; 50 μg/ml,3.77 × 10^2 pg/m.
same,Mean Syncytial Counts,[1]; 100 μM,0
same,Mean Syncytial Counts 2 Days p.i.,[1]; 100 μg/ml,0
same,p24 6 days p.i.,[1]; 100 μg/ml,6.48 × 10^2 pg/m.
same,Mean Syncytial Counts,[1]; 200 μM,0
same,activity at 50 µg/mL,"[1]; Human immunodeficiency virus 1, 96 h, read-out: p24 4 days p.i., % Control",0.01%
same,activity at 12.5 µg/mL,"[1]; Human immunodeficiency virus 1, 96 h, 12.5 μg/ml, read-out: p24 4 days p.i., % Control",> 100%
same,activity at 25 µg/mL,"[1]; Human immunodeficiency virus 1, 96 h, 25 μg/ml, read-out: p24 4 days p.i., % Control",43%
same,activity at 100 µg/mL,"[1]; Human immunodeficiency virus 1, 96 h, 100 μg/ml, read-out: p24 4 days p.i., % Control",0%
same,activity at 200 µM,"[1]; Human immunodeficiency virus 1, 144 h, read-out: P24 Antigen % Virus Control",0%
same,activity at 12 µg/mL,"[1]; Human immunodeficiency virus 1, 144 h, 12 µg/mL, GB8 in JM cells, day 6 p.i., read-out: P24 Antigen % Virus Control",100%
same,activity at 12.5 µg/mL,"[1]; Human immunodeficiency virus 1, 144 h, 12.5 μg/ml, read-out: p24 6 days p.i., % Control",> 100%
same,activity at 25 µg/mL,"[1]; Human immunodeficiency virus 1, 144 h, 25 µg/mL, GB8 in JM cells, day 6 p.i., read-out: P24 Antigen % Virus Control",100%
same,activity at 25 µg/mL,"[1]; Human immunodeficiency virus 1, 144 h, 25 μg/ml, read-out: p24 6 days p.i., % Control",> 100%
same,activity at 50 µg/mL,"[1]; Human immunodeficiency virus 1, 144 h, 50 µg/mL, GB8 in JM cells, day 6 p.i., read-out: P24 Antigen % Virus Control",43%
same,activity at 50 µg/mL,"[1]; Human immunodeficiency virus 1, 144 h, 50 μg/ml, read-out: p24 6 days p.i., % Control",0.02%
same,activity at 100 µg/mL,"[1]; Human immunodeficiency virus 1, 144 h, 100 µg/mL, GB8 in JM cells, day 6 p.i., read-out: P24 Antigen % Virus Control",0.01%
same,activity at 100 µg/mL,"[1]; Human immunodeficiency virus 1, 144 h, 100 μg/ml, read-out: p24 6 days p.i., % Control",0.03%
same,Mean Syncytia 51 hrs,[2]; time of addition 0h,0
same,Mean Syncytia 51 hrs,[2]; time of addition 24h,0
same,Plaque counts,"HSV 2; 0.1 μg/ml, first count",35
same,Plaque counts,"HSV 2; 0.1 μg/ml, second count",35
same,Plaque counts,"HSV 2; 1 μg/ml, first count",23
same,Plaque counts,"HSV 2; 1 μg/ml, second count",31
same,Plaque counts,"HSV 2; 1 μg/ml, third count",24
same,Plaque counts,"HSV 2; 10 μg/ml, first count",26
same,Plaque counts,"HSV 2; 10 μg/ml, second count",19
same,Plaque counts,"HSV 2; 10 μg/ml, third count",21
same,Plaque counts,"HSV 2; 100 μg/ml, first count",0
same,Plaque counts,"HSV 2; 100 μg/ml, second count",0
same,Plaque counts,"HSV 2; 100 μg/ml, third count",0
same,activity at 0.1 µg/mL,HSV 2; read-out: Mean % VC (plaques),63%
same,activity at 1 µg/mL,HSV 2; read-out: Mean % VC (plaques),46%
same,activity at 10 µg/mL,HSV 2; read-out: Mean % VC (plaques),43%
same,activity at 100 µg/mL,HSV 2; read-out: Mean % VC (plaques),0%
same,activity at 50 µg/mL,[3]; 50 µg/mL,> 100%
same,activity at 100 µg/mL,[3]; 100 µg/mL,59%
same,activity at 200 µg/mL,[3]; 200 µg/mL,2.5%
